Structures can show the parent of a compound that is named as a salt.
Biological target: T1, peptide A (contig29; N-terminal residues 1-25 of GJC3, hCx30.2/31.3) (Homo sapiens, UniProt Q8NFK1)
T1 construct: not the full-length connexin
T1 sequence (Q8NFK1 1-25): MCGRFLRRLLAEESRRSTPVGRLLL
Experiment: surface plasmon resonance (ProteOn XPR36), immobilised biotinylated peptide
Type: binding
Conditions: PBS; 0-400 uM titration; N-terminal 25-residue peptide only

Compound | surface plasmon resonance (ProteOn XPR36), immobilised biotinylated peptide
O=C(O)c1cccnc1Nc1cccc(C(F)(F)F)c1 [niflumic acid] | concentration dependent binding profile of niflumic acid was observed with peptide A
CC(C)n1c(/C=C/C(O)CC(O)CC(=O)O)c(-c2ccc(F)cc2)c2ccccc21 (stereo not shown) [fluvastatin sodium salt] | fluvastatin sodium salt, more pronounced binding is seen to peptide A
CC1(C)[C@@H](OC(=O)CCC(=O)O)CC[C@]2(C)[C@H]3C(=O)C=C4[C@@H]5C[C@@](C)(C(=O)O)CC[C@]5(C)CC[C@@]4(C)[C@]3(C)CC[C@@H]12 [carbenoxolone disodium salt] | carbenoxolone, exhibited a pronounced binding interaction
CCC(C)(C)C(=O)O[C@H]1C[C@@H](C)C=C2C=C[C@H](C)[C@H](CC[C@@H](O)C[C@@H](O)CC(=O)O)[C@H]21 [simvastatin sodium salt] | simvastatin acid sodium salt exhibited a weak, concentration dependent binding profile
